Laboratory results as given in patent publication US7378397B2 (The Provost, Fellows and Scholars of the College of the …, priority 2000, dated 2008).
≈ marks a conversion by molar mass, not a printed value. Where a SMILES comes first, the peptide text is derived from it. [ ]: non-standard residue; d: D form. pGlu = O=C1CC[C@@H](C(=O)O)N1

Experiments:
TRH-DE = target: T1, TRH-DE (Sus scrofa, UniProt A0A287AP33); assay: HPLC assay of peptide hydrolysis by TRH-DE (Glp production); type: biochemical, porcine; settings: 1 mM peptide incubated with TRH-DE 18 h at 37° C., HPLC
T1 construct: The inventor purified TRH-DE from porcine brain according to purification procedures previously published by Dr. K. Bauer; from tissue; host or cells: porcine brain (TRH-DE); bovine kidney (DPP-IV, gift from Dr. C. H. Williams)
T1 sequence (A0A287AP33 1-1066): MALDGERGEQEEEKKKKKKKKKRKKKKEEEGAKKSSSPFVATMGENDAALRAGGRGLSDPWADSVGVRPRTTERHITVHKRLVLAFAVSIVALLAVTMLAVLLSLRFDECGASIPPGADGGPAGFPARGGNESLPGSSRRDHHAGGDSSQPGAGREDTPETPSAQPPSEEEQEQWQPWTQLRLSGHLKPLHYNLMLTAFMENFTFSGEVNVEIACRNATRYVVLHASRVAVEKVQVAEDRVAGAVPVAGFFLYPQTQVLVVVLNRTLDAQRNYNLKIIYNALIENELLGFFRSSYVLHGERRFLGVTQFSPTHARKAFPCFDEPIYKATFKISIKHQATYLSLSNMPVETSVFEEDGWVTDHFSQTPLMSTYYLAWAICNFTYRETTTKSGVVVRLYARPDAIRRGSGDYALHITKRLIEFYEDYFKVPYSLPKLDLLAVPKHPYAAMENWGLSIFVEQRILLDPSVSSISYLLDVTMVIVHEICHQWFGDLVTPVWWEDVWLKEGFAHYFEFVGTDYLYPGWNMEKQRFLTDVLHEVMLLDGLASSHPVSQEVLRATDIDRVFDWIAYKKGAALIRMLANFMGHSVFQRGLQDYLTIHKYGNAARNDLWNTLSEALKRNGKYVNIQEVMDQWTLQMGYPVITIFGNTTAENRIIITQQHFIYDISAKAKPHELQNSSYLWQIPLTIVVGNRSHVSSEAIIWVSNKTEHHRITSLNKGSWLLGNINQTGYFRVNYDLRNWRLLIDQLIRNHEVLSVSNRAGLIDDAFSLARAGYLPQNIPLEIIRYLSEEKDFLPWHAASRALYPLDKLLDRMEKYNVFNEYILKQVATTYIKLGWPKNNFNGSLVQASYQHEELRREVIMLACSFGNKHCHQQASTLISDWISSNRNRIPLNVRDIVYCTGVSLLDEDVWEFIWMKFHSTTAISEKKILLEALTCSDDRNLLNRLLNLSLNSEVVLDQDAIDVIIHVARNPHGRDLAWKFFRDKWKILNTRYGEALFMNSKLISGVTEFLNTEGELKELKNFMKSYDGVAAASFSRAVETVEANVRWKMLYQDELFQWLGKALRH
Summary of the method: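 Porcine brain TRH-DE incubated with 1 mM peptide in 20 mM potassium phosphate, pH 7.5, 37 °C: screen with 0.8 μg enzyme for 18 h; rate microassays with 0.8-3.2 μg enzyme for 5 min to 18 h, in triplicate. Reactions stopped with TFA; Glp quantified by C-18 reverse-phase HPLC, UV 206 nm.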

Male Wistar rats = assay: behavioural effects (activity score, WDS, locomotion) after i.p. administration; type: in vivo, rat
Method: Methods: Behavioural studies were conducted using experimentally naïve Male Wistar rats (200-250 g) maintained in a temperature controlled (21° C.), artificially-lighted (12 hr light cycle) room with free access to food and water. Behavioural effects of TRH±TRH-DE inhibitor following intraperitoneal (i.p.) administration: On the day of the experiment, animals were singly housed in perspex cages (30×20×20 cm) and allowed to acclimatize for 20 min. After this period, two baseline measurements of behaviour were made at 10 and 5 min prior to administration of drugs. […] Animals were then observed by two independent observers who were blind to treatment, every 5 min for 30 sec. Blocks of 5 animals were treated at a time, 1 per drug group. Blocks were repeated 5 times. The occurrence of individual behaviours were noted using a behavioural check list, which included grooming, locomotion, rearing, chewing, sniffing, head weave, tail elevation, and/or straub tail and WDS behaviours. These behaviours were summed to yield an overall activity count. Animals were videotaped for separate subsequent analysis of WDS. All WDS behaviours occurring during each 5 min interval after drug administration were counted. The statistical significance of differences between behavioural effects of treatments was determined using the Student's t-test or ANOVA, followed by a post-ANOVA test, as indicated. Radioligand binding data were analysed using non-linear curve fitting software (Prism, Graph Pad Software Inc.). IC50 values calculated from competition experiments were converted to Ki values using the Cheng-Prusoff (41) equation Ki=IC50/(1+L/Kd), where L=ligand concentration and Kd=the apparent dissociation constant for [^3[…].

[1] = target: TRH receptors in rat cortical membranes; assay: radioligand binding to ^3H-3MeHis-TRH-labelled receptors in rat cortex; settings: competition with 6-8 nM ^3H-3MeHis-TRH, Cheng-Prusoff
Method: Evaluation of the ability of TRH, Glp-Asn-ProNH2, and Glp-Asn-ProAMC to bind to ^3H-3MeHis-TRH-labelled receptors in rat cortex: Radioligand binding assays were conducted to investigate the possibility that the two TRH-DE inhibitors might exert their effects by acting independently at TRH receptors in the brain.
Cortex tissue from male Sprague-Dawley rats (250 g) was dissected out, weighed and homogenised in 30 volumes of ice-cold sodium phosphate buffer (0.02 M, pH 7.5). The homogenates were centrifuged at 30,000 g at 4° C. for 30 min. The supernatant was discarded and the pellet was resuspended at 100 mg wet wt/ml in buffer containing 177 μM bacitracin. […] Non-specific binding was defined in the presence of 10 μM TRH.
The statistical significance of differences between behavioural effects of treatments was determined using the Student's t-test or ANOVA, followed by a post-ANOVA test, as indicated. Radioligand binding data were analysed using non-linear curve fitting software (Prism, Graph Pad Software Inc.). IC50 values calculated from competition experiments were converted to Ki values using the Cheng-Prusoff (41) equation Ki=IC50/(1+L/Kd), where L=ligand concentration and Kd=the apparent dissociation constant for [^3H]-[3-MeHis]TRH.

Q: With NC(=O)C[C@H](NC(=O)[C@@H]1CCC(=O)N1)C(=O)N1CCC[C@H]1C(N)=O [Glp-Asn-ProNH2, pyroglutamyl-asparaginyl-prolineamide] ([pGlu]-Asn-Pro-NH2) as the compound, how does the solubility (physchem) read?
A: Its solubility is 1000 µg/mL (≈ 2950 µM).

Q: And the “hydrolysis by TRH-DE (release of Glp)” value (TRH-DE)?
A: The value was “No detectable Glp”.

Q: And the increase in locomotion (Male Wistar rats; i.p. administration, 10 mg/kg)?
A: The increase in locomotion was “not detected”.

Q: And the “rat activity scores compared with saline” value (Male Wistar rats; i.p., 10 mg/kg each, 40 min post injection)?
A: Its value is “significantly increased activity counts”.

Q: What about the pKi [1] of the same compound?
A: The pKi was 5.15±0.24.
